Test results: patent US10166225B2, “Method for treating osteoporosis” (Exelixis, Inc., priority 2011, dated 2019)
Like-named read-outs stand apart in the source and are kept apart here.

Experiments:
[1] = system: KS483 mouse osteoprogenitor cells; test: Osteoblast activity assay (PINP at day 11, calcium deposition at day 13); assay type: cell-based; settings: for activity at 0.004 µM / activity at 0.012 µM / activity at 0.037 µM / activity at 0.11 µM / activity at 0.33 µM / activity at 1 µM / activity at 3 µM: Mus musculus, Osteoblast; for activity at 0.004 µM: 0.004 μM Compound 1; for activity at 0.012 µM: 0.012 μM Compound 1; for activity at 0.037 µM: 0.037 μM Compound 1; for activity at 0.11 µM: 0.11 μM Compound 1; for activity at 0.33 µM: 0.33 μM Compound 1; for activity at 1 µM: 1.0 μM Compound 1; for activity at 3 µM: 3.0 μM Compound 1
Experimental: The effects on osteoblasts were studied using KS483 mouse osteoprogenitor cells that can be induced to differentiate into bone-forming osteoblasts. […] In the osteoblast differentiation assay, the cells were cultured for 8 days, after which the formed mature osteoblasts were quantitated by measuring the amount of intracellular alkaline phosphatase (ALP) activity. […] A culture system was established that can be used as an in vitro model for studying the effects of anabolic and estrogen-like compounds on osteoblast differentiation and activity. In this culture system mouse KS483 cells first proliferate and then differentiate into osteoblasts capable of forming mineralized bone nodules in the presence of ascorbic acid and ß-glycerophosphate (Fagerlund et al. 2009). The test and reference compounds are added into the cell cultures concomitantly with the medium change, and their effects on the differentiation and activity of osteoblasts are determined. Cellular ALP, a marker of osteoblast differentiation, is determined from the cell lysates as described earlier (Lowry et al. 1954). Secreted PINP, a marker of organic bone matrix formation, is determined from the culture medium using a commercially available method (Rat/Mouse PINP EIA, IDS Ltd, Boldon, UK). Calcium deposition, an index of inorganic bone matrix formation, is measured using a commercially available calcium assay (Roche Diagnostics). Mouse KS483 cells were cultured in T-75 tissue culture flasks in aMEM supplemented with 10% charcoal-stripped fetal bovine serum until 80-90% confluence. The cells were incubated in a CO2 incubator in humidified atmosphere of 95% air and 5% carbon dioxide at 37° C. After reaching 80-90% confluence, subcultures were prepared. Cells were removed from the flasks with trypsin treatment and counted. For induction of the maturation of osteoblasts and bone formation, the immature osteoblastic cells were plated in type I collagen-coated 96-well plates. The cells were cultured for 13 days with a supplement of ascorbic acid (50 μg/ml) and ß-glycerophosphate (5 mM), and half of the media was changed every 3-4 days. The test compound and control substance (E2) were added in the beginning of the culture period and when the medium was changed. Secreted PINP was measured from the culture medium at day 11 as a marker of organic bone matrix formation. The cultures were stopped at day 13 by removing the culture media from the wells and adding hydrochloric acid. Calcium deposited into the formed bone matrix was quantitated by using VICTOR2™ Multilabel Counter (PerkinElmer, Waltham, Mass., USA).

[2] = system: human osteoclasts; test: Osteoclast activity assay (resorption index CTX/TRACP 5b); assay type: cell-based
Experimental: In the second part, the culture medium of human osteoclasts was replaced by new medium at day 7, and the formed mature osteoclasts were cultured for an additional 3 days, allowing them to resorb bone. Compound 1 was added into the culture medium at day 7. […] C-terminal cross-linked telopeptides of type I collagen (CTX) were measured in the culture medium collected at day 10 to quantitate bone resorption during days 7-10. […] was measured at day 7 to quantitate osteoclast number before Compound 1 was added. The CTX values were divided by the […] values, resulting as a resorption index that indicates mean osteoclast activity. […] The objective of this study was to investigate the effects of Compound 1 selected by the Sponsor on differentiation and activity of human osteoclasts and mouse osteoblasts in vitro. The effects on osteoclasts were studied using a model where bone marrow-derived human osteoclast precursor cells are cultured on bovine bone slices for 7 days in conditions favouring osteoclast differentiation, and allowed to differentiate into bone-resorbing osteoclasts. After completion of osteoclast differentiation at day 7, the culture medium was removed and new culture medium favouring osteoclast activity was added into the wells. The mature osteoclasts were then cultured for an additional 3 days, allowing them to resorb bone. In the osteoclast differentiation assay, the test compounds and a reference inhibitor osteoprotegerin (OPG) were added into cultures at day 0. In the osteoclast activity assay, the test compounds and a reference inhibitor E64 were added into cultures at day 7. Seven concentrations in 8 replicates were tested in both assays. Tartrate-resistant acid phosphatase 5b activity ([…]) was measured from the culture medium collected at day 7 as an index of the number of osteoclasts formed in each well during the differentiation period. C-terminal cross-linked telopeptides of type I collagen (CTX) was measured from the culture medium collected at day 10 to quantitate bone resorption during days 7-10. A human osteoclast culture system was developed for use in this study where CD34+ osteoclast precursor cells derived from human bone marrow (Poietics® Human Osteoclast Precursors, Lonza, Walkersville, USA) are cultured on bovine bone slices in the presence of appropriate growth factors, including M-CSF and RANK-ligand ([…] et al. 2009). The cells are first allowed to differentiate into mature bone-resorbing osteoclasts, and the formed osteoclasts are then allowed to resorb bone. The test and reference compounds are added into the cell cultures at the beginning of the differentiation and/or the resorption period, and their effects on the differentiation and/or resorbing activity of osteoclasts are determined. Secreted […] is determined from the culture medium after the differentiation period using a commercially available method (BoneTRAPÒ, IDS Ltd, Boldon, UK). Secreted […] describes accurately the number of osteoclasts formed in each well during the differentiation period. CTX is determined from the culture medium after the resorption period using a commercially available method (CrossLapsÒ for cultures, IDS Ltd, Boldon, UK). CTX describes accurately the amount of bone collagen degradation products released into the culture medium in each well during the resorption period. […] In this study, human bone marrow-derived CD34+ stem cells (10000 cells/well) were suspended in culture medium and allowed to attach to bovine bone slices in 96-well tissue culture plates. The culture medium (containing 10% FBS, OCP BulletKit® Lonza, Walkersville, USA) was supplemented with appropriate amounts of important growth factors favoring osteoclast differentiation and activity, including M-CSF (33 ng/ml, OCP BulletKit® Lonza, Walkersville, USA) and RANK-ligand (66 ng/ml, OCP BulletKit® Lonza, Walkersville, USA) in 200 μl of medium. The cells were incubated in a CO2 incubator in humidified atmosphere of 95% air and 5% carbon dioxide at 37° C. […]

[3] = patients with metastatic castration resistant prostate cancer, regardless of prior bisphosphonates; cited from earlier work
[4] = 0.004, 0.012, 0.037 and 0.11 μM
[5] = 264 h, read-out: PINP Activity at Day 11, Percent Activity (%) Compared to BL
[6] = 312 h, read-out: Calcium Deposition at Day 13, Percent Activity (%) Compared to BL

COc1cc2nccc(Oc3ccc(NC(=O)C4(C(=O)Nc5ccc(F)cc5)CC4)cc3)c2cc1OC [Compound 1, N-(4-{[6,7-bis(methyloxy)quinolin-4-yl]oxy}phenyl)-N′-(4-fluorophenyl)cyclopropane-1,1-dicarboxamide]
bone forming activity of osteoblasts [1, 4]: dose-dependent stimulation | calcium values [1, 4]: increased | PINP values ([1]; 0.012 and 0.037 μM): increased | PINP values ([1]; 0.33, 1.0 and 3.0 μM): decreased | bone forming activity of osteoblasts ([1]; 0.33, 1.0 and 3.0 μM): inhibitory effects | calcium values ([1]; 0.33, 1.0 and 3.0 μM): decreased | activity at 0.004 µM [1, 5]: 117% | activity at 0.012 µM [1, 5]: 122% | activity at 0.037 µM [1, 5]: 135% | activity at 0.11 µM [1, 5]: 101% | activity at 0.33 µM [1, 5]: 73% | activity at 1 µM [1, 5]: 42% | activity at 3 µM [1, 5]: 21% | activity at 0.004 µM [1, 6]: 145% | activity at 0.012 µM [1, 6]: 167% | activity at 0.037 µM [1, 6]: 180% | activity at 0.11 µM [1, 6]: 144% | activity at 0.33 µM [1, 6]: 59% | activity at 1 µM [1, 6]: 12% | activity at 3 µM [1, 6]: 4% | activity at 0.004 µM ([2]; Homo sapiens, Osteoclast, 0.004 μM Compound 1, read-out: CTX at Day 10 and TRACP 5b Activity at Day 7 (CTX/TRACP 5b), Percent Activity (%) Compared to BL): 84% | activity at 0.012 µM ([2]; Homo sapiens, Osteoclast, 0.012 μM Compound 1, read-out: CTX at Day 10 and TRACP 5b Activity at Day 7 (CTX/TRACP 5b), Percent Activity (%) Compared to BL): 104% | activity at 0.037 µM ([2]; Homo sapiens, Osteoclast, 0.037 μM Compound 1, read-out: CTX at Day 10 and TRACP 5b Activity at Day 7 (CTX/TRACP 5b), Percent Activity (%) Compared to BL): 115% | activity at 0.11 µM ([2]; Homo sapiens, Osteoclast, 0.11 μM Compound 1, read-out: CTX at Day 10 and TRACP 5b Activity at Day 7 (CTX/TRACP 5b), Percent Activity (%) Compared to BL): 107% | activity at 0.33 µM ([2]; Homo sapiens, Osteoclast, 0.33 μM Compound 1, read-out: CTX at Day 10 and TRACP 5b Activity at Day 7 (CTX/TRACP 5b), Percent Activity (%) Compared to BL): 102% | activity at 1 µM ([2]; Homo sapiens, Osteoclast, 1.0 μM Compound 1, read-out: CTX at Day 10 and TRACP 5b Activity at Day 7 (CTX/TRACP 5b), Percent Activity (%) Compared to BL): 111% | activity at 3 µM ([2]; Homo sapiens, Osteoclast, 3.0 μM Compound 1, read-out: CTX at Day 10 and TRACP 5b Activity at Day 7 (CTX/TRACP 5b), Percent Activity (%) Compared to BL): 85% | effect on osteoclast resorption activity ([2]; tested concentrations 0.004-3.0 μM): no effects | plasma CTx [3]: decrease
